Test results from DBAASP.
≈ marks a conversion by molar mass, not a printed value.

Experiments:
Assay in all cases: ≥ marks a high value that may be exact or a test limit, other limits are often not marked, values filed in µg/mL are converted to µM
[1] = tested on: Acinetobacter baumannii MTCC 9829
[2] = tested on: Alcaligenes faecalis MTCC 1937
[3] = tested on: Alkalihalobacillus alcalophilus MTCC 860
[4] = tested on: Bordetella bronchiseptica MTCC 6837
[5] = tested on: Citrobacter freundii MTCC 1658
[6] = tested on: Citrobacter koseri MTCC 1657
[7] = tested on: Corynebacterium glutamicum MTCC 2679
[8] = tested on: Enterococcus faecalis MTCC 439
[9] = tested on: Escherichia coli K12 MG1655
[10] = tested on: Haemophilus influenzae MTCC 621
[11] = tested on: Klebsiella aerogenes MTCC 111
[12] = tested on: Klebsiella oxytoca MTCC 2275
[13] = tested on: Klebsiella pneumoniae MTCC 7407
[14] = tested on: Pluralibacter gergoviae MTCC 3826
[15] = tested on: Proteus mirabilis MTCC 3158
[16] = tested on: Proteus vulgaris MTCC 1771
[17] = tested on: Pseudomonas aeruginosa MTCC 3542
[18] = tested on: Salmonella enterica MTCC 9844
[19] = tested on: Salmonella enterica subsp. enterica serovar Typhimurium ATCC 14028
[20] = tested on: Shigella boydii MTCC 11947
[21] = tested on: Shigella flexneri MTCC 1457
[22] = tested on: Staphylococcus aureus MTCC 3160
[23] = tested on: Staphylococcus haemolyticus MTCC 3383
[24] = tested on: Stenotrophomonas maltophilia MTCC 1890
[25] = tested on: Vibrio cholerae MTCC 3904

Compound	MIC [1]	MIC [2]	MIC [3]	MIC [4]	MIC [5]	MIC [6]	MIC [7]	MIC [8]	MIC [9]	MIC [10]	MIC [11]	MIC [12]	MIC [13]	MIC [14]	MIC [15]	MIC [16]	MIC [17]	MIC [18]	MIC [19]	MIC [20]	also measured
CSCC[C@H](NC(=O)[C@H](CCCCN)NC(=O)[C@H](CCCCN)NC(=O)[C@H](CC(C)C)NC(=O)[C@H](C)N)C(=O)N[C@@H](CC(C)C)C(=O)N[C@@H](CCCN=C(N)N)C(=O)N[C@@H](CC(C)C)C(=O)N[C@@H](C)C(=O)N[C@@H](CCCCN)C(=O)N[C@@H](CCCN=C(N)N)C(=O)N[C@@H](CC(C)C)C(=O)N[C@@H](CO)C(=O)O [ALKKMLRLAKRLS]	≥ 83.8 µM	≥ 83.8 µM	≥ 83.8 µM	5.24 µM (≈ 8 µg/mL)	≥ 83.8 µM	≥ 41.9 µM	10.5 µM (≈ 16 µg/mL)	≥ 83.8 µM	≥ 41.9 µM	≥ 41.9 µM	≥ 83.8 µM	≥ 83.8 µM	≥ 83.8 µM	≥ 83.8 µM	≥ 83.8 µM	≥ 83.8 µM	≥ 83.8 µM	20.9 µM (≈ 32 µg/mL)	> 83.8 µM	≥ 41.9 µM	MIC [21]: 20.9 µM (≈ 32 µg/mL); MIC [22]: ≥ 83.8 µM; MIC [23]: ≥ 83.8 µM; MIC [24]: ≥ 83.8 µM; MIC [25]: ≥ 83.8 µM
CC[C@H](C)[C@H](NC(=O)[C@@H](N)CCC(=O)O)C(=O)N[C@@H](CC(C)C)C(=O)N[C@@H](CO)C(=O)N[C@@H](CCCCN)C(=O)N[C@@H](C)C(=O)N[C@@H](CC(C)C)C(=O)N[C@@H](CO)C(=O)N[C@@H](C)C(=O)N[C@@H](CC(C)C)C(=O)N[C@@H](CO)C(=O)N1CCC[C@H]1C(=O)N[C@@H](CC(C)C)C(=O)N[C@@H](C)C(=O)N[C@@H](CC(N)=O)C(=O)O [EILSKALSALSPLAN]	≥ 83.8 µM	≥ 83.8 µM	≥ 83.8 µM	≥ 83.8 µM	≥ 83.8 µM	≥ 83.8 µM	≥ 83.8 µM	≥ 83.8 µM	≥ 83.8 µM	≥ 83.8 µM	≥ 83.8 µM	≥ 83.8 µM	≥ 83.8 µM	≥ 83.8 µM	≥ 83.8 µM	≥ 83.8 µM	≥ 83.8 µM	≥ 83.8 µM	> 83.8 µM	≥ 83.8 µM	MIC [21]: ≥ 83.8 µM; MIC [22]: ≥ 83.8 µM; MIC [23]: ≥ 83.8 µM; MIC [24]: ≥ 83.8 µM; MIC [25]: ≥ 83.8 µM
CC[C@H](C)[C@H](NC(=O)CNC(=O)[C@H](CCCCN)NC(=O)[C@H](C)NC(=O)[C@H](C)NC(=O)[C@H](CCCCN)NC(=O)[C@H](Cc1cnc[nH]1)NC(=O)[C@@H](NC(=O)[C@H](C)NC(=O)[C@H](CCCCN)NC(=O)[C@H](Cc1c[nH]c2ccccc12)NC(=O)CN)[C@@H](C)CC)C(=O)N[C@@H](Cc1cnc[nH]1)C(=O)N[C@H](C(=O)N[C@@H](Cc1ccc(O)cc1)C(=O)N[C@H](C(=O)N[C@@H](CC(N)=O)C(=O)O)C(C)C)[C@@H](C)O [GWKAIHKAAKGIHTYVN]	≥ 67.6 µM	≥ 67.6 µM	≥ 67.6 µM	≥ 67.6 µM	≥ 67.6 µM	≥ 67.6 µM	≥ 33.8 µM	≥ 67.6 µM	≥ 67.6 µM	≥ 33.8 µM	≥ 67.6 µM	≥ 67.6 µM	≥ 67.6 µM	≥ 67.6 µM	≥ 67.6 µM	≥ 67.6 µM	≥ 67.6 µM	≥ 67.6 µM	> 67.6 µM	≥ 67.6 µM	MIC [21]: ≥ 67.6 µM; MIC [22]: ≥ 67.6 µM; MIC [23]: ≥ 67.6 µM; MIC [24]: ≥ 67.6 µM; MIC [25]: ≥ 67.6 µM
